Values of other authors, collected in PMC9528030 (ACS chemical biology, 2022).

System: SARS-CoV-2
Conditions: read-out: EC50 in a CPE assay; cited from earlier work

C[C@@H](OC(C)(C)C)[C@H](NC(=O)OCc1ccccc1)C(=O)N[C@@H](CC1CCCCC1)C(=O)N[C@H](C=O)C[C@@H]1CCNC1=O [MPI8]
EC50: 30 nM
